Results reported in PMC10452110, “Indole-3-Acetamido-Polyamines as Antimicrobial Agents and Antibiotic Adjuvants” (Biomolecules, 2023).

What was measured:
[1] = system: Pseudomonas aeruginosa (ATCC 27853); experiment: Intrinsic antimicrobial activity (MIC) against P. aeruginosa; assay type: cell-based; conditions: ATCC27853, P. aeruginosa ATCC 27853, mean (n = 3), read-out: MIC P. a
Method in brief: (§1)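 MICs for S. aureus ATCC 25923 and P. aeruginosa ATCC 27853 determined by previously reported protocols; C. albicans ATCC 90028 and C. neoformans ATCC 208821 tested at the Community for Open Antimicrobial Drug Discovery (University of Queensland) under its standard protocols.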

[2] = system: Escherichia coli (ATCC 25922); experiment: Intrinsic antimicrobial activity (MIC) against E. coli; assay type: cell-based; conditions: ATCC25922, E. coli ATCC 25922, mean (n = 3), read-out: MIC E. c
Method in brief: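 MIC values come from two sources: bacteria tested by previously reported protocols, and Candida and Cryptococcus tested at the Community for Open Antimicrobial Drug Discovery under standard conditions.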

[3] = system: Acinetobacter baumannii (ATCC 19606); experiment: Intrinsic antimicrobial activity (MIC) against A. baumannii; assay type: cell-based; conditions: ATCC19606, A. baumannii ATCC 19606, mean (n = 2), read-out: MIC A. b
Method: (§2) The susceptibility of bacterial strains Staphylococcus aureus (ATCC 25923), Escherichia coli (ATCC 25922) and Pseudomonas aeruginosa (ATCC 27853) to antibiotics and compounds was determined using previously reported protocols. Additional antimicrobial evaluation against MRSA (ATCC 43300), Klebsiella pneumoniae (ATCC 700603), Acinetobacter baumannii (ATCC 19606), Candida albicans (ATCC 90028) and Cryptococcus neoformans (ATCC 208821) was undertaken at the Community for Open Antimicrobial Drug Discovery at The University of Queensland (Australia) according to their standard protocols, as reported previously.

[4] = system: Klebsiella pneumoniae (ATCC 700603); experiment: Intrinsic antimicrobial activity (MIC) against K. pneumoniae; assay type: cell-based; conditions: ATCC700603, K. pneumoniae ATCC 700603, mean (n = 2), read-out: MIC K. p
Method: as §2

[5] = system: Candida albicans (ATCC 90028); experiment: Intrinsic antifungal activity (MIC) against C. albicans; assay type: cell-based; conditions: ATCC90028, C. albicans ATCC 90028, mean (n = 2), read-out: MIC C. a
Method in brief: (§3)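 Antibacterial MICs by established in-house protocol; yeast MICs run externally at CO-ADD, University of Queensland, per their standard screening protocols.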

MRSA (ATCC 43300) = experiment: Intrinsic antimicrobial activity (MIC) against MRSA; assay type: cell-based; conditions: Staphylococcus aureus, MRSA ATCC 43300; mean (n = 2); read-out: MIC MRSA
Method in brief: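 Bacterial susceptibility was determined following previously reported protocols. The antifungal evaluations were carried out at the Community for Open Antimicrobial Drug Discovery (University of Queensland, Australia) under its standard protocols.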

E. coli ATCC 25922 = experiment: Enhancement of erythromycin action against E. coli; assay type: cell-based, Escherichia coli; conditions: erythromycin at 10.9 µM
Method: (§4) Antibiotic enhancer concentrations were determined using previously reported protocols.

human red blood cells = experiment: Hemolytic assay; assay type: cell-based; conditions: mean (n = 2)
Method: Hemolysis assays were conducted using the protocols previously reported.

[6] = system: Staphylococcus aureus (ATCC 25923); experiment: Intrinsic antimicrobial activity (MIC) against S. aureus; assay type: cell-based; conditions: ATCC25923, S. aureus ATCC 25923, mean (n = 3), read-out: MIC S. a
Method in brief: as §1

[7] = system: Cryptococcus neoformans (ATCC 208821); experiment: Intrinsic antifungal activity (MIC) against C. neoformans; assay type: cell-based; conditions: ATCC208821, C. neoformans ATCC 208821, mean (n = 2), read-out: MIC C. n
Method in brief: as §3

Cytotoxicity assay = assay type: cell-based; conditions: human; HEK293 cells; mean (n = 2); read-out: Cytotoxicity: concentration of compound at 50% cytotoxicity (IC50)
Method: Cytotoxicity assays were conducted using the protocols previously reported.

P. aeruginosa ATCC 27853 = experiment: Enhancement of doxycycline action against P. aeruginosa; assay type: cell-based, Pseudomonas aeruginosa; conditions: doxycycline at 4.5 µM
Method: as §4

Row | SMILES | MIC [1] [µM] | MIC [2] [µM] | MIC [3] [µM] | MIC [4] [µM] | MIC [5] [µM] | MIC (MRSA (ATCC 43300)) [µM] | Eryth/E. c: concentration required to restore erythromycin activity (combination MIC) (E. coli ATCC 25922) [µM] | Hemolysis: concentration of compound at 10% hemolytic activity (HC10) (human red blood cells) [µM] | MIC [6] [µM] | MIC [7] [µM] | IC50 (Cytotoxicity assay) [µM] | Dox/P. a fold change (ratio between intrinsic MIC of the test compound and combination MIC) (P. aeruginosa ATCC 27853) [fold] | Dox/P. a: concentration required to restore doxycycline activity (combination MIC) (P. aeruginosa ATCC 27853) [µM]
1 | O=C(Cc1c[nH]c2ccccc12)NCCCNCCCCCCCNCCCNC(=O)Cc1c[nH]c2ccccc12.O=C(O)C(F)(F)F.O=C(O)C(F)(F)F [Compound 14c, N^1,N^7-Bis(3-(2-(1H-indol-3-yl)acetamido)propyl)heptane-1,7-diaminium 2,2,2-trifluoroacetate] | > 254 | > 254 | > 41 | > 41 | > 41 | ≤ 0.32 | > 254 | 0.72 | 15.9 | ≤ 0.32 | > 41 | 4 | 63.5
2 | COc1ccc2[nH]cc(CC(=O)NCCCNCCCCCCCNCCCNC(=O)Cc3c[nH]c4ccc(OC)cc34)c2c1.O=C(O)C(F)(F)F.O=C(O)C(F)(F)F [Compound 16c, N^1,N^7-Bis(3-(2-(5-methoxy-1H-indol-3-yl)acetamido)propyl)heptane-1,7-diaminium 2,2,2-trifluoroacetate] | > 200 | 25 | > 38 | > 38 | > 38 | > 38 | 50 | >38 | > 200 | 2.36 | > 38 | – | 12.5
3 | COc1ccc2[nH]cc(CC(=O)NCCCNCCCCCCCCNCCCNC(=O)Cc3c[nH]c4ccc(OC)cc34)c2c1.O=C(O)C(F)(F)F.O=C(O)C(F)(F)F [Compound 16d, N^1,N^8-Bis(3-(2-(5-methoxy-1H-indol-3-yl)acetamido)propyl)octane-1,8-diaminium 2,2,2-trifluoroacetate] | 100 | 6.25 | > 37 | > 37 | > 37 | 2.32 | 6.25 | >37 | 25 | ≤ 0.29 | > 37 | – | 6.25
4 | O=C(Cc1c[nH]c2ccc(Br)cc12)NCCCNCCCCCCCCCCNCCCNC(=O)Cc1c[nH]c2ccc(Br)cc12.O=C(O)C(F)(F)F.O=C(O)C(F)(F)F [Compound 15e, N^1,N^10-Bis(3-(2-(5-bromo-1H-indol-3-yl)acetamido)propyl)decane-1,10-diaminium 2,2,2-trifluoroacetate] | 50.7 | 12.7 | > 32 | > 32 | ≤ 0.25 | ≤ 0.25 | 12.7 | ≤0.25 | 6.33 | ≤ 0.25 | > 32 | 4 | 12.7
5 | O=C(Cc1c[nH]c2ccccc12)NCCCNCCCCCCCCNCCCNC(=O)Cc1c[nH]c2ccccc12.O=C(O)C(F)(F)F.O=C(O)C(F)(F)F [Compound 14d, N^1,N^8-Bis(3-(2-(1H-indol-3-yl)acetamido)propyl)octane-1,8-diaminium 2,2,2-trifluoroacetate] | > 250 | 62.4 | > 40 | > 40 | > 40 | ≤ 0.31 | 250 | 15.8 | 31.2 | ≤ 0.31 | > 40 | > 1 | 250
